The test system of assay [1] is photochemically-induced brain ischemia. The assay is described as follows: Photochemically-induced (rose Bengal) focal cerebral ischemia on rats. It counts as in vivo, rat. The settings on record: mean. From the text: The aim of this study was to evaluate the activity of Betaine on thrombus formation in a rat model of photochemically-induced brain ischemia. The method (11) is based on local free radical release exerted by filtered light acting on rose Bengal previously injected in animals. Free radicals are known to induce endothelial damage, followed by platelet aggregation, thrombus formation and vascular occlusion. Briefly, an optic fiber in close contact shone denuded intact skulls (diameter of the illuminated circle 5.4 mm, luminance at the entrance of optic fiber was 5.6×10^6 Ix). After turning on the lamp, an infusion through the caudal vein of a 5 mg/mL (w/v) solution of rose Bengal in saline was started. Two mL of the solution were administered at a flow rate of 0.1 mL/min. After 20 min, at the end of the infusion, the lamp was turned off. [table] Evan's Blue solution (2% w/v) in saline was intravenously injected (1 mL/rat), 18-20 h after the ischemia induction in order to reveal the BBB breakdown. The rats were sacrificed 20 min after Evan's Blue injections and their brains removed. The infarcted area was visually verified, photographed by digital camera and then weighed.

In assay [2] the test system is thrombus formation in mesenteric veinules or arterioles. The assay is described as follows: Laser-induced thrombosis in rat mesenteric circulation. The conditions noted are these: oral 60 minutes before laser thrombosis. It counts as in vivo, Wistar rats. From the text:
Male Wistar rats (200-270 gram) were used for the experiments. […] After the medial laparotomy the intestinal loop was placed on the microscope table. Vascular lesions were produced by Argon laser […] This shot causes a well limited lesion of the vascular endothelium (only few cells are destroyed) exposing the thrombogenetic under-layer of the sub-endothelium. The contact of blood with this surface triggers the adherence of platelets via glycoproteins Ib & IIb IIIa. This adherence of platelets is followed by their activation: they form pseudopods and secrete the content of their granules. As a consequence thrombus formation occurs within few seconds. This platelet rich thrombus rapidly enlarges under influence of blood flow, embolises (i.e. is disrupted and carried by the flow from the thrombogenic area) before a new thrombus being formed again on the injured surface. […] Up to four shots can be fired if no emboli (platelet thrombus) are readily appearing. The number of successive laser beams and emboli formed are then recorded. In the presence of an antithrombotic compound a higher number of laser shots are necessary to induce thrombus formation. Similarly, a smaller number of emboli (platelet thrombi) are formed as compared with controls and the duration of the embolisation is also shorter. […] Similarly, a higher number of emboli (platelet thrombi) are formed as compared with controls and the duration of the embolisation is also longer. Betaine is orally administrated to animals at 50 mg/kg, 60 minutes before laser thrombosis.

The subject of assay [3] is whole blood platelet aggregation. As to the kind of experiment: Whole blood aggregation, ADP 5 μM. It counts as in vivo, Wistar rats. The conditions noted are these: oral.
Experimental: Blood is sampled by intracardiac puncture on trisodium citrate solution (3, 8% sodium citrate/blood 1/9 vv) using the 2 syringes technique.
ADP 5 μM in final concentration is used as agonist. Amplitudes are expressed in ohms (Ω) and velocities in ohm/min (Ω/min)
[4] abbreviates: ASA 50 mg/kg iv 30 min before ischemia induction, n = 5.
[5] abbreviates: ASA 200 mg/kg iv 30 min before ischemia induction, n = 10.
Setting [6] is: Celebrex 10 mg + saline, individual rats.
[7] abbreviates: Celebrex 10 mg + saline, mean of 6 rats.
The mark [8] stands for this setting: NS 398 5 mg + saline, individual rats.
Setting [9] is: NS 398 5 mg + saline, mean of 6 rats.

SMILES strings stand for the structures. Where “and” joins values, the source holds several entries; their conditions need not be identical. Equal entries are not always repeated.

As to `CC(=O)Oc1ccccc1C(=O)O` [ASA, Acetylsalicylic acid, reference compound], in assay [1] (setting [4]), the “Red Ischemic Area, Excluding Blue Evan Penumbra” value was 0.322 cm^2 and the “Weight of ischemic area” value was determined as 35.0 mg. Also, in assay [1] (setting [5]), the “Red Ischemic Area, Excluding Blue Evan Penumbra” value came out at 0.29 cm^2 and the “Weight of ischemic area” value is 40 mg.
As to `Cc1ccc(-c2cc(C(F)(F)F)nn2-c2ccc(S(N)(=O)=O)cc2)cc1` [Celebrex ®], in assay [2] (setting [6]), the duration of embolisation is 4 (2×) and 5 (3×) and 9; the emboli was 9 and 8 and 11 (2×) and 17 and 12; the laser beams is 2 (3×) and 1 (3×). Also, in assay [2] (setting [7]), the duration of embolisation stood at 5.33, the emboli was 11.33 and the laser beams turned out to be 1.5. Further, in assay [3] (setting [6]), the amplitude is 13 Ω (3×) and 12 Ω and 14 Ω and 21 Ω; the velocity was 8 Ω/min (2×) and 7 Ω/min (2×) and 13 Ω/min and 9 Ω/min. In assay [3] (setting [7]), the amplitude is 14.33 Ω and the velocity is given as 8.67 Ω/min.
For `CS(=O)(=O)Nc1ccc([N+](=O)[O-])cc1OC1CCCCC1` [NS 398], in assay [2] (setting [8]), the duration of embolisation was 5 (2×) and 4 (2×) and 3 and 2; the emboli is 11 and 9 (2×) and 10 and 7 and 8; the laser beams is 2 (5×) and 1. Besides, in assay [2] (setting [9]), the duration of embolisation came out at 3, the emboli stood at 9 and the laser beams came out at 1.83. In assay [3] (setting [8]), the amplitude was 9 Ω (2×) and 10 Ω and 2 Ω and 12 Ω and 6 Ω; the velocity was 9 Ω/min and 7 Ω/min (4×) and 5 Ω/min. Also, in assay [3] (setting [9]), the amplitude is reported as 8 Ω and the velocity is 7 Ω/min.

For the origin of these results see patent publication US8318805B2, “Modulation of nitric oxide synthases by betaines” (priority 2004, dated 2012).
